The record followed here is the SangsterLogP compilation.

The structures appear in SMILES notation.

Data set [1] in a line: method code SF-AS, from DOI: 10.1111/j.2042-7158.1979.tb13606.x, PMID: 41067. The following applies: pH 1.2.
Data set [2] can be described thus: method code SF, from DOI: 10.1515/bc.2002.085, PMID: 12108546.
A short description of data set [3]: method code SF-AS, from DOI: 10.1002/jps.2600800717, PMID: 1658297.
The nature of data set [4]: method code SF-GLC, from Hermens, J., & De Bruijn, J. (1987). A QSAR study for fish toxicity data of organophosphorus compounds. QSAR in Drug Design and Toxicology, 10, 343-345.
A short description of data set [5]: method code SF-HPLC, from DOI: 10.1016/0378-5173(85)90010-9. The following applies: pH 4.0.
Data set [6] in a line: method code SF, from DOI: 10.1021/jm00307a001, PMID: 5637185.
The nature of data set [7]: method code SF-RC, from Audran, M.; Chanal, J.; Berge, G.; Marignan, R. (1983). Binding-structure correlation of bovine serum albumin in a series of cresotinamides. International Journal of Pharmaceutics, 15(3)273-284. The settings on record: pH 1.0.
Data set [8] in a line: method code SF, from DOI: 10.1016/0048-3575(88)90017-x.
A short description of data set [9]: method code SF, from DOI: 10.1021/jm030913e.s001, PMID: 14736235. The settings on record: pH 7.4.
The nature of data set [10]: method code SF, from DOI: 10.1021/jm00378a018, PMID: 6389865. The settings on record: pH 7.0.
Data set [11] in a line: method code SF-HPLC, from DOI: 10.1016/0378-5173(87)90234-1. The following applies: pH 4.0.
Test in data set [12]: not given
This is another data set of the same source.

Data set [13] in a line: method code SF, from DOI: 10.1016/0360-3016(86)90226-9, PMID: 3744928. The settings on record: pH 7.4.
A short description of data set [14]: method code SF-HPLC, from DOI: 10.1016/0378-5173(82)90005-9. The following applies: pH 3.0.
Data set [15] is described as follows: method code SF-HPLC, from DOI: 10.1016/s0223-5234(02)01360-0, PMID: 12008054. The settings on record: pH 7.4.
Test in data set [16]: not given
The source holds these as a separate data set.

Data set [17] is described as follows: method code SF-AS, from DOI: 10.1002/1521-3838(200111)20:4<291::aid-qsar291>3.0.co;2-q.
A short description of data set [18]: method code SF-AS, from Holmes, L.; Lough, E. (1976). Effect of Intramolecular Hydrogen Bonding on Partition Coefficients [Technical Note]. Defence Research Establishment Suffield.
Test in data set [19]: not given
This is another data set of the same source.

A short description of data set [20]: from Dutta, H.; Mehta, N.; SenGupta, M.; Pal, D.; Sengupta, C.; De, A. (1988). Dioxanide furoate: studies on its interaction with blood phospholipid in relation to partition coefficients of related drugs. ….
Test in data set [21]: not given
This is another data set of the same source.

The nature of data set [22]: method code SF-AS, from DOI: 10.1016/0006-2952(93)90433-w, PMID: 8494536. The following applies: pH 7.4.
A short description of data set [23]: method code SF, from DOI: 10.1111/j.2042-7158.1971.tb08772.x, PMID: 4401532. The following applies: pH 7.2.
Test in data set [24]: not given
This is another data set of the same source.

Data set [25] can be described thus: method code SF-AS, from DOI: 10.1021/jm00254a011, PMID: 4845376.

The term logD denotes the decadic logarithm of the distribution of all forms, ionised or not, between an organic phase and buffer at a given pH. In data set [1], `COc1ccc(C(=O)O)cc1` displayed a logD of 1.88.

By logP is commonly meant the decadic logarithm of the partition coefficient of the neutral form, usually between octanol and water. Higher therefore signals higher lipophilicity. Take `CCCCOC(=O)C1(C)CCC=[N+]1[O-]` (stereo unspecified): the logP in data set [2] turned out to be 0.12.

Consider `CC1(C)CC(N(N=O)C(=O)NC2C(O)OC(CO)C(O)C2O)C(C)(C)N1O` (stereo unspecified), for which, in [3], the logP is 1.81.

`CC(C)(C)c1ccc(O)c(C(C)(C)C)c1` yielded a logP of 4.74.

Consider `COP(=S)(OC)Oc1cc(Cl)c(I)cc1Cl`, for which the logP in data set [4] was 4.61.

Consider `CN(C)C(=O)n1cc(F)c(=O)[nH]c1=O`, for which, in [5], the logD was -0.37.

In data set [6], `CCC1(CC)SCC(=O)NC1=O` registered a logP of 1.5.

As to `CCNC(=O)c1cc(Br)cc(C)c1O`, in data set [7], the logD worked out at 3.61.

Molecule `CC(=O)OCN1C(=O)C2CC=CCC2C1=O` (stereo unspecified) came in with a logP in [8] of 0.97.

`COP(=S)(OC)Oc1ccc(SC)cc1` yielded a logP in data set [4] of 3.64.

Molecule `CC[C@@H](C(N)=O)N1C[C@H](CI)CC1=O` gave a logD in [9] of 0.51.

`Cc1ccc(C)c(O)c1` displayed a logP of 2.48.

On to `CC(=O)Nc1nc(NCC(O)CO)c(Cl)nc1[N+](=O)[O-]` (stereo unspecified), for which, in [10], the logD was 0.

In [11], `CCCCCCOC(=O)n1cc(F)c(=O)[nH]c1=O` yielded a logD of 2.04.

Molecule `C#CC(/C=C/Cl)(CC)OC(N)=O` (stereo unspecified) returned a logP in [6] of 1.71.

In [2], `CCOC(=O)C1(C)CCC=[N+]1[O-]` (stereo unspecified) returned a logP of -0.82.

In the case of `COC(=O)C1CC(=O)N(C)C1` (stereo unspecified), the logP in [12] was -0.74.

Consider `CC(C)OC(=O)n1cc(F)c(=O)[nH]c1=O`, for which the logD in [11] turned out to be 0.2.

For `O=C(Cn1cnc([N+](=O)[O-])n1)N1CCOCC1`, the logD in data set [13] was -0.96.

`O=C1NC(=O)C2(CCCCCCC2)C(=O)N1` registered a logD in data set [14] of 1.79.

In the case of `CC(C)C[C@H]1C(=O)N2CCC[C@H]2[C@]2(O)O[C@](NC(=O)[C@@H]3C=C4c5cccc6[nH]c(Br)c(c56)C[C@H]4N(C)C3)(C(C)C)C(=O)N12`, in data set [15], the logD turned out to be 4.61.

On to `O=[N+]([O-])c1ccc(Oc2ccccc2)cc1`, for which the logP in data set [16] worked out at 3.79.

In data set [17], `COc1ccc(-c2n[nH]c(=S)o2)cc1` came in with a logP of 3.

Take `CCCCNC(=O)Cn1cnc([N+](=O)[O-])n1`: in data set [13], the logD was 0.89.

In [3], `CC1(C)CC(N(N=O)C(=O)NC2C(O)OC(CO)C(O)C2O)CC(C)(C)N1O` (stereo unspecified) had a logP of 1.87.

Consider `O=C(c1ccccc1)c1ccccc1O`, for which the logP in [18] was 3.52.

`O=C(O)Cc1cc(Cl)c(Cl)cc1Cl` registered a logP in [19] of 3.6.

`O=C(O)Cc1ccc(F)cc1` returned a logP in data set [19] of 1.6.

For `O=[N+]([O-])c1ncn(CC(O)CN2CC2)n1` (stereo unspecified), the logD in [13] was -0.72.

In [20], `CN(C(=O)C(Cl)Cl)c1ccc(OC(=O)c2ccccc2)cc1` gave a logP of 2.56.

With `NC(N)=N/N=C/c1c(Cl)cccc1Cl`, in [15], the logD is 1.4.

With `CC[C@@H](C(N)=O)N1CCCC1=O`, the logD in data set [9] is -0.65.

`O=C(O)Cc1ccc(Oc2cccc(Br)c2)cc1` showed a logP in data set [19] of 4.1.

`C#CC(C=C)(CC)OC(N)=O` (stereo unspecified) had a logP in [6] of 1.09.

In turn, `CC(=O)OCN1C(=O)C=C(C)C1=O` registered a logP in data set [8] of 0.45.

For the molecule `CC(=O)c1ccc([N+](=O)[O-])cc1`, in data set [16], the logP is 1.61.

For `O=C1NC(=O)C2(CCC2)C(=O)N1`, in data set [14], the logD was -0.27.

Regarding `O=C(c1ccccn1)n1c(=O)[nH]cc(F)c1=O`, in data set [11], the logD is -0.06.

The molecule `CCNc1nc(NCC)nc(OC)n1` displayed a logP in data set [21] of 2.41.

In turn, `NS(=O)(=O)c1cccc2ccccc12` displayed a logD in [22] of 1.55.

`COc1ccc(N(C)C(C)=O)cc1`: in data set [23], the logD stood at 0.72.

In data set [15], `CNC(=NC#N)NCCSCc1nc[nH]c1C` showed a logD of 0.35.

For the molecule `O=C1NC(=O)C2(CCCCCC2)C(=O)N1`, the logD in data set [14] was 1.36.

`CCCCCCCCOC(=O)C1(C)CCC=[N+]1[O-]` (stereo unspecified) showed a logP in data set [2] of 1.62.

Turning to `COc1cccc(C=O)c1O`, in data set [18], the logP was 1.33.

On to `CCCCCCN1CC(C(=O)OC)CC1=O` (stereo unspecified), for which, in [12], the logP turned out to be 2.3.

`CC(=O)Nc1ccc(Cl)cc1` had a logD in data set [23] of 1.87.

On to `Cc1ccc2ccccc2n1`, for which the logP in data set [24] came to 2.59.

Turning to `CC(C)(C)c1cc(C(C)(C)C)c(O)c(C(C)(C)C)c1`, the logP was 6.3.

Turning to `O=C(Nc1ccccc1)n1cc(F)c(=O)[nH]c1=O`, the logD in data set [5] was found to be 1.5.

`CC(=O)c1ccc(O)cc1` yielded a logP in [18] of 1.45.

On to `Cc1ccccc1N(C)C`, for which the logP in data set [24] stood at 2.81.

On to `CCCCNC(=O)n1cc(F)c(=O)[nH]c1=O`, for which the logD in [5] was found to be 1.44.

In turn, `CCCCCCCCCCCCN1CC(C(=O)O)CC1=O` (stereo unspecified) yielded a logP in data set [12] of 2.6.

`CCCCOc1ccc(C(=O)O)cc1` yielded a logD in data set [1] of 3.57.

As for `CC(=O)Nc1nc(N2CCN(C)CC2)c(Cl)nc1[N+](=O)[O-]`, the logD in data set [10] stood at 0.5.

In data set [17], `Nc1ccc(-c2n[nH]c(=S)o2)cc1` came in with a logP of 2.03.

Consider `S=c1[nH]nc(-c2ccc(Br)cc2)o1`, for which the logP in data set [17] came out at 3.93.

The molecule `CN(N=O)C(=O)NC[C@H](O)[C@@H](O)[C@H](O)[C@H](O)CO` yielded a logP in [3] of -0.96.

Take `O=C(Nc1ccc(O)cc1)C(Cl)Cl`: the logP in data set [20] was determined as 1.6.

`NC(=O)c1cccc2ccccc12`: in data set [22], the logD came out at 1.88.

Molecule `COP(=S)(OC)Oc1ccccc1` showed a log partition coefficient (logP) in data set [4] of 2.97.

Regarding `CC(=O)N(C)c1ccc(O)cc1`, the log distribution coefficient (logD) in data set [23] was found to be 0.61.

In data set [9], `CCC[C@@H]1CC(=O)N([C@@H](CC)C(N)=O)C1` showed a logD of 1.

Molecule `Nc1nc(NCC(O)CO)c(Cl)nc1[N+](=O)[O-]` (stereo unspecified) registered a logD in [10] of -0.22.

The molecule `c1ccc(N(c2ccccc2)c2ccccc2)cc1` registered a logP in [16] of 5.22.

On to `Cc1cc(Br)cc(C(=O)NC(C)C)c1O`, for which the logD in data set [7] worked out at 4.19.

In data set [20], `CN(C(=O)C(Cl)Cl)c1ccc(OC(=O)c2ccco2)cc1` showed a logP of 2.24.

In data set [7], `Cc1cc(Br)cc(C(N)=O)c1O` displayed a logD of 2.76.

Turning to `Nc1nc(C=Cc2ccc([N+](=O)[O-])o2)no1`, the logP in data set [25] worked out at 1.3.

As for `COc1ccc(CCC(=O)O)cc1`, the logD in data set [1] amounted to 1.9.

In [8], `CC(=O)OCN1C(=O)c2cccc3cccc(c23)C1=O` registered a logP of 2.34.

With `CNc1nc(NC(C)C)nc(SC)n1`, the logP in [21] was 2.79.

For the molecule `CS(=O)(=O)c1ccccc1`, the logD in data set [22] was 0.55.

In data set [24], `CNc1ccccc1C` registered a logP of 2.16.

Turning to `CCNc1nc(NC(C)CC)nc(OC)n1` (stereo unspecified), the logP in data set [21] was 2.96.
